What was measured:
human Trk A kinase = human Trk A kinase (Homo sapiens (Human), UniProt P04629); test: Trk A kinase Alphascreen assay; assay type: biochemical; settings: 0.838 ng/ml Trk A, 70 μM ATP, 20 minutes, room temperature; read-out: Trk inhibitory activity IC50
Procedure: Trk A kinase activity was determined by measuring the kinase's ability to phosphorylate synthetic tyrosine residues within a generic polypeptide substrate using an Amplified Luminescent Proximity Assay (Alphascreen) technology (PerkinElmer, 549 Albany Street, Boston, Mass.).
To measure Trk A kinase activity, the intracellular domain of a HIS-tagged human Trk A kinase (amino acids 442-796 of Trk A, Swiss-Prot Primary Accession Number P04629) may be expressed in SF9 cells and purified using standard nickel column chromatography. After incubation of the kinase with a biotinylated substrate and adenosine triphosphate (ATP) for 20 minutes at room temperature, the kinase reaction may be stopped by the addition of 30 mM ethylenediaminetetraacetic acid (EDTA). The reaction may be performed in 384 well microtitre plates and the reaction products may be detected with the addition of strepavidin coated Donor Beads and phosphotyrosine-specific antibodies coated Acceptor Beads using the EnVision Multilabel Plate Reader after an overnight incubation at room temperature.

human JAK2 = human JAK2 (Homo sapiens (Human), UniProt O60674); test: JAK2 kinase Alphascreen assay; assay type: biochemical; settings: 150 pM JAK2 enzyme, 15 μM ATP, 60 minutes, room temperature; read-out: JAK inhibitory activity IC50
Procedure: JAK2 kinase activity was determined by measuring the kinase's ability to phosphorylate synthetic tyrosine residues within a generic polypeptide substrate using an Amplified Luminescent Proximity Assay (Alphascreen) technology (PerkinElmer, 549 Albany Street, Boston, Mass.).
To measure JAK2 kinase activity, a commercially available purified enzyme may be used. The enzyme may be a C-terminal His6-tagged, recombinant, human JAK2, amino acids 808-end, (Genbank Accession number NM 004972) expressed by baculovirus in Sf21 cells (Upstate Biotechnology MA). After incubation of the kinase with a biotinylated substrate and adenosine triphosphate (ATP) for 60 minutes at room temperature, the kinase reaction may be stopped by the addition of 30 mM ethylenediaminetetraacetic acid (EDTA). The reaction may be performed in 384 well microtitre plates and the reaction products may be detected with the addition of streptavidin coated Donor Beads and phosphotyrosine-specific antibodies coated Acceptor Beads using the EnVision Multilabel Plate Reader after an overnight incubation at room temperature.

Chain of human Trk A kinase (P04629 442-796): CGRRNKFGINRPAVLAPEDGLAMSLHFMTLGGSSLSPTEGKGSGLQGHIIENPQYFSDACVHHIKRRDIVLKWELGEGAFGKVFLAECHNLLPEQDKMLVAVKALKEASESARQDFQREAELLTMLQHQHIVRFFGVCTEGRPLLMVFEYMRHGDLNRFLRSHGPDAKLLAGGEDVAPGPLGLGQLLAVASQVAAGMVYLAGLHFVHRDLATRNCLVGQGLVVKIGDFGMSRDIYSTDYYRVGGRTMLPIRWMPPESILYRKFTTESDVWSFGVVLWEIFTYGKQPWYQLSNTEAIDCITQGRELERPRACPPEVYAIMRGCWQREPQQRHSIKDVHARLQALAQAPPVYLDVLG
Chain of human JAK2 (O60674 808-1132 limits assumed): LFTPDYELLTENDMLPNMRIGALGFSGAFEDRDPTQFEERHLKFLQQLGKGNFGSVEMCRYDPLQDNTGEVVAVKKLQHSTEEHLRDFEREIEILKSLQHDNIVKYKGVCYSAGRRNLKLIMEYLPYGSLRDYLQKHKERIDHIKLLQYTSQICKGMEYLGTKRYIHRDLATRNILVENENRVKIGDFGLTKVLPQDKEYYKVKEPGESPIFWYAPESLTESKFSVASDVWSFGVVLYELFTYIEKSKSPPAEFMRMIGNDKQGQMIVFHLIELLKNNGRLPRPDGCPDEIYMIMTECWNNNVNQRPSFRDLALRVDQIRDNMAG

IC50 (human Trk A kinase) [nM]	IC50 (human JAK2) [nM]	Compound
773		Cc1cc(-n2cnc3c(N4CCOCC4)nc(N[C@@H](C)c4ccc(F)cn4)nc32)n[nH]1 [Example 22, N-[(1S)-1-(5-Fluoropyridin-2-yl)ethyl]-9-(5-methyl-1H-pyrazol-3-yl)-6-morpholin-4-yl-9H-purin-2-amine]
3		CC(C)Oc1cc(-n2cnc3cnc(N[C@@H](C)c4ncc(F)cn4)nc32)n[nH]1 [Example 12, N-[(1S)-1-(5-Fluoropyrimidin-2-yl)ethyl]-9-(5-isopropoxy-1H-pyrazol-3-yl)-9H-purin-2-amine]
3810		Cc1cc(-n2cnc3cc(F)c(N[C@@H](C)c4ncc(F)cn4)nc32)n[nH]1 [Example 15, 6-Fluoro-N-[(1S)-1-(5-fluoropyrimidin-2-yl)ethyl]-3-(5-methyl-1H-pyrazol-3-yl)-3H-imidazo[4,5-b]pyridin-5-amine]
3		CCOc1cc(-n2cnc3ccc(N[C@@H](CC)c4ccc(F)cn4)nc32)n[nH]1 [Example 23, 3-(5-Ethoxy-1H-pyrazol-3-yl)-N-[(1S)-1-(5-fluoropyridin-2-yl)propyl]-3H-imidazo[4,5-b]pyridin-5-amine]
3		CCOc1cc(-n2cnc3ccc(N[C@@H](C)c4ncc(F)cn4)nc32)n[nH]1 [Example 9, 3-(5-Ethoxy-1H-pyrazol-3-yl)-N-[(1S)-1-(5-fluoropyrimidin-2-yl)ethyl]-3H-imidazo[4,5-b]pyridin-5-amine]
6		CC[C@H](Nc1ccc2ncn(-c3cc(OC(C)C)[nH]n3)c2n1)c1ccc(F)cn1 [Example 13, N-[(1S)-1-(5-Fluoropyridin-2-yl)propyl]-3-(5-isopropoxy-1H-pyrazol-3-yl)-3H-imidazo[4,5-b]pyridin-5-amine]
311		Cc1cc(-n2cnc3cnc(N[C@@H](C)c4ccc(F)cn4)nc32)n[nH]1 [Example 18, N-[(1S)-1-(5-Fluoropyridin-2-yl)ethyl]-9-(5-methyl-1H-pyrazol-3-yl)-9H-purin-2-amine]
5		C[C@H](Nc1ncc2ncn(-c3cc(C4CC4)[nH]n3)c2n1)c1ccc(F)cn1 [Example 5, 9-(5-Cyclopropyl-1H-pyrazol-3-yl)-N-[(1S)-1-(5-fluoropyridin-2-yl)ethyl]-9H-purin-2-amine]
475		Cc1cc(-n2cnc3c(NC4CCOCC4)nc(N[C@@H](C)c4ccc(F)cn4)nc32)n[nH]1 [Example 20, N^2-[(1S)-1-(5-Fluoropyridin-2-yl)ethyl]-9-(5-methyl-1H-pyrazol-3-yl)-N^6-(tetrahydro-2H-pyran-4-yl)-9H-purine-2,6-diamine]
96		COc1nc(N[C@@H](C)c2ccc(F)cn2)nc2c1ncn2-c1cc(C)[nH]n1 [Example 21, N-[(1S)-1-(5-Fluoropyridin-2-yl)ethyl]-6-methoxy-9-(5-methyl-1H-pyrazol-3-yl)-9H-purin-2-amine]
61		Cc1cc(-n2cnc3ccc(N[C@@H](C)c4ncc(F)cn4)nc32)n[nH]1 [Example 16, N-[(1S)-1-(5-Fluoropyrimidin-2-yl)ethyl]-3-(5-methyl-1H-pyrazol-3-yl)-3H-imidazo[4,5-b]pyridin-5-amine]
3		CC(C)Oc1cc(-n2cnc3ccc(N[C@@H](CO)c4ccc(F)cn4)nc32)n[nH]1 [Example 7, (2R)-2-(5-Fluoropyridin-2-yl)-2-{[3-(5-isopropoxy-1H-pyrazol-3-yl)-3H-imidazo[4,5-b]pyridin-5-yl]amino}ethanol]
3		C[C@H](Nc1ccc2ncn(-c3cc(C4CC4)[nH]n3)c2n1)c1ccc(F)cn1 [Example 2, 3-(5-Cyclopropyl-1H-pyrazol-3-yl)-N-[(1S)-1-(5-fluoropyridin-2-yl)ethyl]-3H-imidazo[4,5-b]pyridin-5-amine]
3		CC(C)Oc1cc(-n2cnc3cnc(N[C@@H](C)c4ccc(F)cn4)nc32)n[nH]1 [Example 11, N-[(1S)-1-(5-Fluoropyridin-2-yl)ethyl]-9-(5-isopropoxy-1H-pyrazol-3-yl)-9H-purin-2-amine]
3		CCOc1cc(-n2cnc3ccc(N[C@@H](C)c4ccc(F)cn4)nc32)n[nH]1 [Example 10, 3-(5-Ethoxy-1H-pyrazol-3-yl)-N-[(1S)-1-(5-fluoropyridin-2-yl)ethyl]-3H-imidazo[4,5-b]pyridin-5-amine]
3		CC(C)Oc1cc(-n2cnc3ccc(N[C@@H](C)c4ncc(F)cn4)nc32)n[nH]1 [Example 6, N-[(1S)-1-(5-Fluoropyrimidin-2-yl)ethyl]-3-(5-isopropoxy-1H-pyrazol-3-yl)-3H-imidazo[4,5-b]pyridin-5-amine]
3		CC(C)Oc1cc(-n2cnc3ccc(N[C@@H](C)c4ccc(F)cn4)nc32)n[nH]1 [Example 1, N-[(1S)-1-(5-fluoropyridin-2-yl)ethyl]-3-(5-isopropoxy-1H-pyrazol-3-yl)-3H-imidazo[4,5-b]pyridin-5-amine]
3		CCOc1cc(-n2cnc3ccc(N[C@@H](CO)c4ccc(F)cn4)nc32)n[nH]1 [Example 8, (2R)-2-{[3-(5-Ethoxy-1H-pyrazol-3-yl)-3H-imidazo[4,5-b]pyridin-5-yl]amino}-2-(5-fluoropyridin-2-yl)ethanol]
14	3	Cc1cc(-n2cnc3ccc(N[C@@H](C)c4ccc(F)cn4)nc32)n[nH]1 [Example 17, N-[(1S)-1-(5-Fluoropyridin-2-yl)ethyl]-3-(5-methyl-1H-pyrazol-3-yl)-3H-imidazo[4,5-b]pyridin-5-amine]
12		C[C@H](Nc1ncc2ncn(-c3cc(C4CC4)[nH]n3)c2n1)c1ncc(F)cn1 [Example 4, 9-(5-Cyclopropyl-1H-pyrazol-3-yl)-N-[(1S)-1-(5-fluoropyrimidin-2-yl)ethyl]-9H-purin-2-amine]
4		CC(C)Oc1cc(-n2cnc3cc(Cl)c(N[C@@H](C)c4ccc(F)cn4)nc32)n[nH]1 [Example 14, 6-Chloro-N-[(1S)-1-(5-fluoropyridin-2-yl)ethyl]-3-(5-isopropoxy-1H-pyrazol-3-yl)-3H-imidazo[4,5-b]pyridin-5-amine]
7250		Cc1cc(-n2cnc3c(C(=O)N4CCOCC4)nc(N[C@@H](C)c4ncc(F)cn4)nc32)n[nH]1 [Example 19, N-[(1S)-1-(5-Fluoropyrimidin-2-yl)ethyl]-9-(5-methyl-1H-pyrazol-3-yl)-6-(morpholin-4-ylcarbonyl)-9H-purin-2-amine]

From patent US8486966B2, “9-(pyrazol-3-yl)-9H-purine-2-amine and 3-(pyrazol-3-yl) -3H-imidazo[4,5-B] pyridin-5-amine derivatives and their use for the treatment of cancer” (Astrazeneca AB, priority 2007, dated 2013)
